This is an account of results in paper PMC11671793, “Design, Synthesis, and Evaluation of Novel (−)‐cis‐N‐Normetazocine Derivatives: In Vitro and Molecular Modeling Insights” (Chemical Biology & Drug Design, 2024).

Assay [1] has as its target T1, MOR (mu opioid receptor) (Rattus norvegicus, UniProt P33535).
T1 construct: from tissue; host or cells: rat brain membranes
Nature of the assay: MOR radioligand binding assay with [3H]-DAMGO. The settings on record: for K i DOR/K i MOR / K i KOR/K i MOR: selectivity ratio.

For assay [2], the target named is T1, MOR (mu opioid receptor). The note with it: cited from earlier work.
Assay [3] addresses T2, DOR (delta opioid receptor) (Rattus norvegicus, UniProt P33533). The note with it: cited from earlier work.
The target of assay [4] is T3, KOR (kappa opioid receptor) (Cavia porcellus, UniProt P41144).
T3 construct: from tissue; host or cells: guinea pig brain membranes
The settings on record: cited from earlier work.

Assay [5] concerns the target T2, DOR (delta opioid receptor). Nature of the assay: DOR radioligand binding assay with [3H]-Delthorphin.
For assay [6], the target named is T3, KOR (kappa opioid receptor). Nature of the assay: KOR radioligand binding assay with [3H]-U69,593. Further details: species or system guinea pig.
In a further assay the target is MOR. Further details: method as in Pasquinucci et al. [2010]. The settings on record: Figure 1; ref Pasquinucci et al. [2010]; cited from earlier work.
Another assay addresses DOR. Further details: method as in Pasquinucci et al. [2010]. The settings on record: Figure 1; ref Pasquinucci et al. [2010]; cited from earlier work.
The next assay deals with KOR. On the set-up: method as in Pasquinucci et al. [2010]. The note with it: Figure 1; ref Pasquinucci et al. [2010]; cited from earlier work.
Setting [7] is: read-out: MOR Expected K i, experimental Ki as repeated in Table 2, previously synthesized compounds, ref Pasquinucci et al. ([2017]), Costanzo et al. ([2023]).
Where [8] appears, read: read-out: DOR Expected K i, experimental Ki as repeated in Table 2, previously synthesized compounds, ref Pasquinucci et al. ([2017]), Costanzo et al. ([2023]).
Setting [9] is: read-out: KOR Expected K i, experimental Ki as repeated in Table 2, previously synthesized compounds, ref Pasquinucci et al. ([2017]), Costanzo et al. ([2023]).
Setting [10] is: K i (nM) ± SD KOR, [3H]-U69,593, mean ± SD of at least two experiments in duplicate.
Setting [11] is: KOR Expected K i (nM), experimental Ki as repeated in Table 2.

Like-named read-outs stand apart in the source and are kept apart here. Bounds are passed on as bounds.

T2 sequence (P33533 whole entry): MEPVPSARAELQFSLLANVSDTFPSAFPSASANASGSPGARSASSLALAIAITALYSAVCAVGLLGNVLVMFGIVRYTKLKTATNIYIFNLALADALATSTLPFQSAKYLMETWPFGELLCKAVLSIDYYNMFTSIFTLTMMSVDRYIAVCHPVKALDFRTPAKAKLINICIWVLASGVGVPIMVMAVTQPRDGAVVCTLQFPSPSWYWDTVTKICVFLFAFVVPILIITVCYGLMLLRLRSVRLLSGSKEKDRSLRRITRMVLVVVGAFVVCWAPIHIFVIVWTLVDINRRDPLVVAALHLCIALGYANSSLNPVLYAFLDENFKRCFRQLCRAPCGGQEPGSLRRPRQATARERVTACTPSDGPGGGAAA
T1 sequence (P33535 whole entry): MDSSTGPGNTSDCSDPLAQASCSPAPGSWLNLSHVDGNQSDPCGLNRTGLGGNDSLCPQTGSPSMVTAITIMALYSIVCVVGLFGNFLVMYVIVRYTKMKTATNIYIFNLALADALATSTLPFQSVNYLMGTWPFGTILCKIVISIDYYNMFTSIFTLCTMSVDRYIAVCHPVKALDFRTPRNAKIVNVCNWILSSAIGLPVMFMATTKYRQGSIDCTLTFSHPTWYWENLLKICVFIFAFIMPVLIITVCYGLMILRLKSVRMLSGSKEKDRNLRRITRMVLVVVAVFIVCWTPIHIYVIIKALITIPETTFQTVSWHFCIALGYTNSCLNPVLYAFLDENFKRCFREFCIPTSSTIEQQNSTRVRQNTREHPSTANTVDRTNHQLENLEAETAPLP
T3 sequence (P41144 whole entry): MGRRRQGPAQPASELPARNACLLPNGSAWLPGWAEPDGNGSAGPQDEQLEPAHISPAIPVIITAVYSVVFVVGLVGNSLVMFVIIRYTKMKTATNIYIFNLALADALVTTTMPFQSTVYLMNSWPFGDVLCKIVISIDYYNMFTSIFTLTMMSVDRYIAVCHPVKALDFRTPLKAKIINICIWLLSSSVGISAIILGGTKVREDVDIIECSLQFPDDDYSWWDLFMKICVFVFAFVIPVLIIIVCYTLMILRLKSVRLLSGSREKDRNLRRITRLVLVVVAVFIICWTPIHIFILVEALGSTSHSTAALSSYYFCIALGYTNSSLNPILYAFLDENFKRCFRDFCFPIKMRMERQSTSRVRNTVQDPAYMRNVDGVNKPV

`CCOC(=O)C(CCN1CCC2(C)c3cc(O)ccc3CC1C2C)c1ccccc1` (stereo not drawn) [Compound 1]: the “K i DOR/K i MOR” value on MOR (mu opioid receptor) [1] is on record as 40.70. Besides, the “K i KOR/K i MOR” value at MOR (mu opioid receptor) [1] is 12.00. Further, the Ki is 10.8 ± 2 nM at MOR (mu opioid receptor) [2] (experimental Ki as repeated in Table 2, previously synthesized compounds, ref Pasquinucci et al. ([2017]), Costanzo et al. ([2023]), read-out: MOR Expected K i); 10.8 ± 2 nM at MOR (mu opioid receptor) [2] (footnote b, ref Pasquinucci et al. ([2017]), read-out: K i (nM) ± SD MOR); 440 ± 22 nM in assay [3] (experimental Ki as repeated in Table 2, previously synthesized compounds, ref Pasquinucci et al. ([2017]), Costanzo et al. ([2023]), read-out: DOR Expected K i); 440 ± 22 nM in [3] (footnote b, ref Pasquinucci et al. ([2017]), read-out: K i (nM) ± SD DOR); 130 ± 15 nM in [4] (experimental Ki as repeated in Table 2, previously synthesized compounds, ref Pasquinucci et al. ([2017]), Costanzo et al. ([2023]), read-out: KOR Expected K i); 130 ± 15 nM in assay [4] (footnote b, ref Pasquinucci et al. ([2017]), read-out: K i (nM) ± SD KOR).
Consider `CC1C2Cc3ccc(O)cc3C1(C)CCN2CCC(C(=O)O)c1ccccc1` (stereo not drawn) [Compound 2], for which the “K i DOR/K i MOR” value on MOR (mu opioid receptor) [1] turned out to be 23.30. Besides, the Ki was 11.8 ± 2 nM at MOR (mu opioid receptor) [2] (read-out: K i (nM) ± SD MOR, footnote b, ref Pasquinucci et al. ([2017])); 11.8 ± 2 nM at MOR (mu opioid receptor) [2] (setting [7]); 275 ± 11 nM in assay [3] (setting [8]); 275 ± 11 nM in assay [3] (read-out: K i (nM) ± SD DOR, footnote b, ref Pasquinucci et al. ([2017])); 3220 ± 60 nM in [4] (read-out: K i (nM) ± SD KOR, footnote b, ref Pasquinucci et al. ([2017])); 3220 ± 60 nM in [4] (setting [9]).
As to `COC(=O)CCN1CC[C@@]2(C)c3cc(O)ccc3C[C@@H]1[C@@H]2C` [Compound 3, Methyl 3‐[(2R,6R,11R)‐8‐hydroxy‐6,11‐dimethyl‐1,4,5, 6‐tetrahydro‐2,6‐methanobenzo[d]azocin‐3(2H]‐yl)propanoate], the Ki came to 513 ± 30 nM in [5], 19 ± 3 nM on MOR (mu opioid receptor) [1], 60.7 ± 8 nM in assay [6] (setting [10]) and 60.7 ± 0.7 nM in [6] (setting [11]). In addition, the “K i DOR/K i MOR” value at MOR (mu opioid receptor) [1] was found to be 26.98. For the same compound, the “K i KOR/K i MOR” value on MOR (mu opioid receptor) [1] is given as 3.19.
As to `COC(=O)CCCN1CC[C@@]2(C)c3cc(O)ccc3C[C@@H]1[C@@H]2C` [Compound 4, Methyl 4‐((2R,6R,11R)‐8‐hydroxy‐6,11‐dimethyl‐1,4,5,6‐tetrahydro‐2,6‐ methanobenzo[d]azocin‐3(2H)‐yl)butanoate], the Ki in assay [5] came out at 218 ± 20 nM; at MOR (mu opioid receptor) [1] it was 67.8 ± 7 nM; in assay [6] (setting [10]) it was 70.5 nM; in [6] (setting [11]) it was 70.5 ± 0.76 nM. The “K i DOR/K i MOR” value at MOR (mu opioid receptor) [1] came to 3.21. Besides, the “K i KOR/K i MOR” value at MOR (mu opioid receptor) [1] is 1.04.
Take `C[C@H]1[C@H]2Cc3ccc(O)cc3[C@]1(C)CCN2CCC(=O)O` [Compound 5, 3‐((2R,6R,11R)‐8‐Hydroxy‐6,11‐dimethyl‐1,4,5,6‐tetrahydro‐2,6‐methanobenzo[d]azocin‐3(2H)‐yl)propanoic acid]: the Ki in assay [5] is 1100 ± 54 nM; at MOR (mu opioid receptor) [1], 383 ± 21 nM; in [6] (setting [10]), over 5000 nM. In addition, the “K i DOR/K i MOR” value on MOR (mu opioid receptor) [1] turned out to be 2.88.
Consider `C[C@H]1[C@H]2Cc3ccc(O)cc3[C@]1(C)CCN2CCCC(=O)O` [Compound 6, 4‐((2R,6R,11R)‐8‐Hydroxy‐6,11‐dimethyl‐1,4,5,6‐tetrahydro‐2,6‐methanobenzo[d]azocin‐3(2H)‐yl)butanoic acid], for which the Ki was 1200 ± 64 nM in assay [5], 992 ± 55 nM on MOR (mu opioid receptor) [1] and over 5000 nM in assay [6] (setting [10]). Moreover, at MOR (mu opioid receptor) [1], the “K i DOR/K i MOR” value stood at 1.21.
Turning to `C[C@H]1[C@H]2Cc3ccc(O)cc3[C@]1(C)CCN2CCC(=O)NO` [Compound 7, N‐Hydroxy‐3‐((2R,6R,11R)‐8‐hydroxy‐6,11‐dimethyl‐1,4,5,6‐tetrahydro‐2,6‐methanobenzo[d]azocin‐3(2H)‐yl)propanamide], the Ki in [5] was 335 ± 19 nM; at MOR (mu opioid receptor) [1], 30.8 ± 2 nM; in assay [6] (setting [10]), over 5000 nM. Also, on MOR (mu opioid receptor) [1], the “K i DOR/K i MOR” value is recorded as 10.89.
With `C[C@H]1[C@H]2Cc3ccc(O)cc3[C@]1(C)CCN2CCCC(=O)NO` [Compound 8, N‐Hydroxy‐4‐((2R,6R,11R)‐8‐hydroxy‐6,11‐dimethyl‐1,4,5,6‐tetrahydro‐2,6‐methanobenzo[d]azocin‐3(2H)‐yl)butanamide], the Ki in assay [5] is 1300 ± 80 nM; on MOR (mu opioid receptor) [1], 42.2 ± 3 nM; in assay [6] (setting [10]), over 5000 nM. The “K i DOR/K i MOR” value on MOR (mu opioid receptor) [1] is reported as 30.83.
Consider `CC1C2Cc3ccc(O)cc3C1(C)CCN2CCC(=O)Nc1ccccc1` (stereo not drawn) [LP1], for which the Ki on MOR was 0.83 nM; at DOR, 29.1 nM; on KOR, 110 nM.
In the case of `COC(CN1CCC2(C)c3cc(O)ccc3CC1C2C)c1ccccc1` (stereo not drawn) [LP2], the “K i DOR/K i MOR” value at MOR (mu opioid receptor) [1] is given as 6.11. At MOR (mu opioid receptor) [1], the “K i KOR/K i MOR” value was 14.10. Moreover, the Ki at MOR (mu opioid receptor) [2] (read-out: K i (nM) ± SD MOR, footnote c, ref Costanzo et al. ([2023])) is 1.08 ± 0.1 nM; on MOR (mu opioid receptor) [2] (setting [7]), 1.08 ± 0.1 nM; in [3] (setting [8]) it was 6.61 ± 0.6 nM; in [3] (read-out: K i (nM) ± SD DOR, footnote c, ref Costanzo et al. ([2023])), 6.61 ± 0.6 nM; in assay [4] (read-out: K i (nM) ± SD KOR, footnote c, ref Costanzo et al. ([2023])) it was 15.2 ± 0.8 nM; in assay [4] (setting [9]) it was 15.2 ± 0.8 nM.
